Patent US20220249441A1, “Homodimeric Tobramycin Adjuvant Repurposes Novobiocin as an Effective Antibacterial Agent Against Gram-Negative Bacteria” (priority 2019, published 2022)
≈ marks a conversion by molar mass, not a printed value.

How the values were obtained:
P. aeruginosa = test: Checkerboard assay (antibiotic + adjuvant combination MIC); assay type: cell-based, Pseudomonas aeruginosa
[1] = system: A. baumannii ATCC 17978 and resistant mutants; test: microbe, parasite or virus in culture; assay type: cell-based, Acinetobacter baumannii; settings: Acinetobacter baumannii
Experimental: Antimicrobial Susceptibility Assay. The in vitro antimicrobial activity of all compounds/antibiotics against a panel of bacteria was evaluated by microbroth dilution method in accordance with the Clinical and Laboratory Standards Institute (CLSI) guidelines (using ATCC strains as quality control strains) (54). Overnight grown bacterial cultures were diluted in saline to achieve a 0.5 McFarland turbidity, followed by 1:50 dilution in Mueller-Hinton broth (MHB) for inoculation to a final concentration of approximately 5×10^5 CFU/mL. […] The lowest concentration that prevented the visible growth of bacteria was defined as the MIC for each antimicrobial agent. The broth with or without bacterial cells was used as positive or negative control, respectively.
Development of Resistance Study. […] Tobramycin and colistin were included as controls. At 24-hour intervals, the cultures were assessed for growth. […] This serial passaging was repeated for 8 days.

[2] = system: MDR/XDR P. aeruginosa, Acinetobacter baumannii, Escherichia coli, Klebsiella pneumoniae, and Enterobacter cloacae; assay type: cell-based; settings: Gram-negative bacteria
Experimental: Next, we investigated whether tobramycin by itself would potentiate novobiocin against Gram-negative bacteria.
Checkerboard Assay. Combination studies with different antibiotics were performed in 96-well plates as previously described (19). Briefly, the antibiotic of interest was serially diluted in MHB along the abscissa while the adjuvant (tobramycin homodimer) was serially diluted in MHB along the ordinate. This creates a 10×7 matrices wherein each well consists of a combination of different antibiotic and adjuvant concentrations. Overnight grown bacterial cultures were diluted in saline to achieve a 0.5 McFarland turbidity, followed by 1:50 dilution in Mueller-Hinton broth (MHB) for inoculation to a final concentration of approximately 5×10^5 CFU/mL. […] MIC was recorded as wells with the lowest concentration of drugs with no bacterial growth. The fractional inhibitory concentration (FIC) for each antibiotic was calculated by dividing the MIC of the antibiotic in the presence of adjuvant by the MIC of the antibiotic alone. Similarly, the FIC of adjuvant was calculated by dividing the MIC of the adjuvant in the presence of antibiotic by the MIC of the adjuvant alone. FIC index is the sum of both FICs. FIC indices of ≤0.5 were deemed synergistic; >0.5-4, no interaction; and >4, antagonistic.

Experimental for porcine erythrocytes: Hemolytic Assay. The hemolytic activities of the newly synthesized compounds were determined and quantified as the amount of hemoglobin released by lysing porcine erythrocytes. […] The final cell concentration used was 3×10^8 cells/mL. Compounds were serially diluted with PBS and added to wells in a 96-well plate at twice the desired concentrations. […] Intact erythrocytes were subsequently pelleted by centrifuging at 1000 g at 4° C. for 10 mins, and the supernatants were transferred to a new 96-well plate. […] Blood cells in PBS (0% hemolysis) and 0.1% Triton X-100 (100% hemolysis) were used as negative and positive controls, respectively. Percent hemolysis was calculated as [% hemolysis=(X−0%)/(100%−0%)], where X is the optical density values of the compounds at different concentrations (49).

## CC(C)(O/N=C(\C(=O)N[C@@H]1C(=O)N2C(C(=O)[O-])=C(C[n+]3ccccc3)CS[C@H]12)c1csc(N)n1)C(=O)O [Ceftazidime, reference compound]
P. aeruginosa; P. aeruginosa PAO1, β-lactam antibiotic alone
  MIC Alone: 2 µg/mL
P. aeruginosa; PA 259-96918
  MIC of CAZ alone: 512 µg/mL
P. aeruginosa; PA 260-97103
  MIC of CAZ alone: 32 µg/mL
P. aeruginosa; PA 262-101856
  MIC of CAZ alone: 16 µg/mL
P. aeruginosa; PA 264-104354
  MIC of CAZ alone: 128 µg/mL
P. aeruginosa; PA 86052
  MIC of CAZ alone: 64 µg/mL
P. aeruginosa; PA 88949
  MIC of CAZ alone: 64 µg/mL
P. aeruginosa; PA 91433
  MIC of CAZ alone: 4 µg/mL
P. aeruginosa; PA 100036
  MIC of CAZ alone: 8 µg/mL
P. aeruginosa; PA 101243
  MIC of CAZ alone: 64 µg/mL
P. aeruginosa; PA 101885
  MIC of CAZ alone: 8 µg/mL
P. aeruginosa; PA 107092
  MIC of CAZ alone: 128 µg/mL
P. aeruginosa; PA 108590
  MIC of CAZ alone: 32 µg/mL
P. aeruginosa; PA 109084
  MIC of CAZ alone: 64 µg/mL
P. aeruginosa; PA 114228
  MIC of CAZ alone: 8 µg/mL
P. aeruginosa; PAO1
  MIC of CAZ alone: 2 µg/mL
P. aeruginosa; PAO200 (efflux-deficient)
  MIC of CAZ alone: 1 µg/mL
P. aeruginosa; PAO750 (efflux-deficient)
  MIC of CAZ alone: 0.5 µg/mL
[1]; ATCC17978, 18 h, Mutant C (seven serial passages, sub-MICs novobiocin + 7.1 μM compound 1)
  MIC: 16 µg/mL
[1]; ATCC17978, Mutant A (seven serial passages, sub-MICs novobiocin)
  MIC: 32 µg/mL (≈ 58.5 µM)
[1]; ATCC17978, Mutant B (seven serial passages, sub-MICs colistin)
  MIC: 1 µg/mL (≈ 1.83 µM)
[1]; ATCC17978, Wild-type A. baumannii ATCC 17978
  MIC: 16 µg/mL (≈ 29.3 µM)
[2]
  synergy with novobiocin: did not show any synergy

## NC[C@H]1O[C@H](O[C@H]2[C@H](OCCCCCCCCn3cc(CCCCO[C@@H]4[C@@H](O[C@H]5O[C@H](CO)[C@@H](O)[C@H](N)[C@H]5O)[C@H](N)C[C@H](N)[C@H]4O[C@H]4O[C@H](CN)[C@@H](O)C[C@H]4N)nn3)[C@@H](O[C@H]3O[C@H](CO)[C@@H](O)[C@H](N)[C@H]3O)[C@H](N)C[C@@H]2N)[C@H](N)C[C@@H]1O.O=C(O)C(F)(F)F.O=C(O)C(F)(F)F.O=C(O)C(F)(F)F.O=C(O)C(F)(F)F.O=C(O)C(F)(F)F.O=C(O)C(F)(F)F.O=C(O)C(F)(F)F.O=C(O)C(F)(F)F.O=C(O)C(F)(F)F.O=C(O)C(F)(F)F [Compound 3, Tobramycin Homodimer 3]
Porcine erythrocytes
  hemolysis of porcine erythrocytes: non-hemolytic
